From ChEMBL document CHEMBL1201862, “PubChem BioAssay data set” (2004)
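Five compound concentrations were applied to cells in 96-well plates for 48 hours; endpoints were derived by simple linear interpolation of the resulting dose-response curve. GI50 is the concentration that inhibits growth by half.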 The source made the active and inactive calls. Rule as the data show it: active = GI50 up to about 1.1 µM and inactive = higher.

Key:
Experiment in all cases: growth of human tumour cells (NCI), 48 h
[1] = test system: NCI-H226
[2] = test system: NCI-H23
[3] = test system: 786-0
[4] = test system: HOP-62
[5] = test system: RPMI-8226
[6] = test system: NCI-H522
[7] = test system: IGROV-1
[8] = test system: CAKI-1
[9] = test system: SF-295
[10] = test system: OVCAR-3
[11] = test system: UACC-62
[12] = test system: MDA-MB-435
[13] = test system: K562
[14] = test system: SNB-19
[15] = test system: HCT-116
[16] = test system: SK-MEL-2
[17] = test system: SF-268
[18] = test system: SK-MEL-28
[19] = test system: SNB-75

Measured: GI50

Fc1ccc(Oc2nc3ccccc3nc2-c2ccccc2)cc1
inactive: [1] > 100 µM | [2] 42.5 µM | [3] 80 µM | [4] 88.9 µM | [5] 81.7 µM | [6] 71.8 µM | [7] > 100 µM | [8] > 100 µM | [9] > 100 µM | [10] > 100 µM | [11] > 100 µM | [12] > 100 µM | [13] > 100 µM | [14] > 100 µM | [15] > 100 µM | [16] > 100 µM | [17] > 100 µM | [18] > 100 µM

Cc1ccccc1NC(=O)C(=O)CC(=O)C1CCOC1=O (stereo unspecified)
inactive: [1] > 100 µM | [19] > 100 µM | [2] > 100 µM | [3] > 100 µM | [4] > 100 µM | [5] > 100 µM | [6] > 100 µM | [7] > 100 µM | [8] > 100 µM | [9] > 100 µM | [10] > 100 µM | [11] > 100 µM | [13] > 100 µM | [14] > 100 µM | [15] > 100 µM | [16] > 100 µM | [17] > 100 µM | [18] > 100 µM

COC(=O)c1nc(NN)cc(O)c1CCCCCc1c(O)nc(NN)nc1C(=O)OC
inactive: [1] > 100 µM | [19] > 100 µM | [2] > 100 µM | [3] > 100 µM | [4] > 100 µM | [5] 72.4 µM | [6] > 100 µM | [7] > 100 µM | [8] > 100 µM | [9] > 100 µM | [10] > 100 µM | [11] > 100 µM | [13] > 100 µM | [14] > 100 µM | [15] > 100 µM | [16] > 100 µM | [17] > 100 µM | [18] > 100 µM

O=C(NCCCC/N=c1/cccccc1NCCCCNC(=O)OCc1ccccc1)OCc1ccccc1
inactive: [1] 16.4 µM | [19] 18.7 µM | [2] 19.3 µM | [3] 16.4 µM | [4] 21.2 µM | [5] 13 µM | [6] 17.2 µM | [7] 20.9 µM | [8] 20.9 µM | [9] 13.5 µM | [10] 14.3 µM | [11] 19.4 µM | [13] 10.1 µM | [14] 23.8 µM | [15] 9.98 µM | [16] 18.8 µM | [17] 25.6 µM | [18] 22.1 µM

CCOC(=O)/C(=C\c1ccc(N(CCC#N)CCC#N)cc1C)NC(=O)/C=C/c1ccccc1
inactive: [1] 96.2 µM | [19] > 100 µM | [2] > 100 µM | [3] > 100 µM | [4] > 100 µM | [5] > 100 µM | [6] > 100 µM | [7] > 100 µM | [8] > 100 µM | [9] > 100 µM | [10] > 100 µM | [11] > 100 µM | [13] > 100 µM | [14] > 100 µM | [15] > 100 µM | [16] > 100 µM | [17] > 100 µM | [18] > 100 µM

O=c1[nH]nc(NCCc2ccccc2)c2nnn(Cc3ccccc3)c12
inactive: [19] > 100 µM | [2] > 100 µM | [3] > 100 µM | [4] > 100 µM | [5] > 100 µM | [8] > 100 µM | [9] > 100 µM | [10] > 100 µM | [12] > 100 µM | [13] > 100 µM | [14] > 100 µM | [15] > 100 µM | [16] > 100 µM | [17] > 100 µM | [18] > 100 µM

COc1ccc(/C=C(\NC(=O)c2ccccc2)c2nc3ccccc3[nH]2)cc1OC
inactive: [1] > 100 µM | [19] > 100 µM | [2] > 100 µM | [3] > 100 µM | [4] > 100 µM | [5] 80.5 µM | [6] > 100 µM | [7] > 100 µM | [8] > 100 µM | [9] > 100 µM | [10] > 100 µM | [11] > 100 µM | [13] > 100 µM | [14] > 100 µM | [15] > 100 µM | [16] > 100 µM | [17] > 100 µM | [18] > 100 µM

Cn1cnc([N+](=O)[O-])c1Sc1n[nH]c(-c2ccc(Cl)cc2)n1
inactive: [1] 14 µM | [19] 18.6 µM | [2] 18.6 µM | [3] 20.3 µM | [4] 21.5 µM | [5] 22.1 µM | [6] 11.7 µM | [7] 20 µM | [8] 25.1 µM | [9] 23.4 µM | [10] 18.1 µM | [11] 14.4 µM | [13] 13.7 µM | [14] 20.7 µM | [15] 19.6 µM | [16] 13.6 µM | [17] 22 µM | [18] 15.3 µM
